Data reported in PMC11904993, “Humanized Candida and NanoBiT Assays Expedite Discovery of Bdf1 Bromodomain Inhibitors With Antifungal Potential” (Advanced Science, 2025).
Values joined by “and” are separate entries in the source; they are usually repeats but may differ in a detail not shown here. Equal entries are not always repeated. Where two headings read alike, the source gives them in different places.

Assays:
[1] = system: C. glabrata strains (WT, pdr1∆ or PDR1 rescue); test: Growth assays to assess compound efflux; format: cell-based; details: for growth (Figure S10A): three replicates
Procedure: Cells from a single colony were diluted in 0.85% NaCl before being counted using a Neubauer chamber. […] The effect of fluconazole was tested by titration on these strains under similar conditions.

CgBdf1 BD1 [2] = molecular target: CgBdf1 BD1 (Candida glabrata, UniProt Q6FWV7); test: HTRF assay, inhibition of H4ac4 peptide binding; parameters: species or system C. glabrata
CgBdf1 BD2 [3] = molecular target: CgBdf1 BD2 (Candida glabrata, UniProt Q6FWV7); test: biochemical; format: binding, C. glabrata
human Brd4 BD1 = human Brd4 BD1 (Homo sapiens, UniProt O60885); test: HTRF assay, inhibition of H4ac4 peptide binding
human Brd4 BD2 = molecular target: T1, human Brd4 BD2 (Homo sapiens, UniProt O60885); test: HTRF assay, inhibition of H4ac4 peptide binding; details: Table S3; estimate, preliminary single-replicate HTRF assay; read-out: IC50 Brd4 BD2
T1 construct: GST‐tagged BD2 (residues 349–460) from human Brd4 (UniProt ID O60885); purchased Reaction Biology Corp

CgBdf1 BD1 [4] = test: Histone peptide array assay
Procedure: (§1) The array was prepared as described in the manufacturer's instructions. […] The array was then washed three times with binding buffer. Anti‐GST antibody (GE Healthcare) was used for the detection of GST‐tagged bromodomains.

CgBdf1 BD2 [5] = test: Histone peptide array assay
Procedure: as §1

[6] = system: C. glabrata strains expressing WT and mutant Bdf1; test: Growth inhibition in liquid media, C. glabrata lab strains; details: Nakaseomyces glabratus, single experiments Exp1-3
Procedure: Growth on Liquid Media with C. glabrata Lab Strains: Cells were grown at 30 °C in SC+M+C‐U medium (SC medium with 5 mM methionine, 0.25 mM cysteine, without uracil) to an OD600 of 0.5–0.8. […] Plates were incubated at 30 °C and OD600 was measured using a Multiskan FC Microplate Photometer (Thermo Fisher).

CgBdf1 BD1 (Candida glabrata, UniProt Q6FWV7), sequence (Q6FWV7 entry or part of it): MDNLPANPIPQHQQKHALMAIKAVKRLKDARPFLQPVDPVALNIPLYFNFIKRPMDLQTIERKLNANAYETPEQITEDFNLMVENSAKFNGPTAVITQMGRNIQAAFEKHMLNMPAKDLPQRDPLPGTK
CgBdf1 BD2 (Candida glabrata, UniProt Q6FWV7), sequence (Q6FWV7 entry or part of it): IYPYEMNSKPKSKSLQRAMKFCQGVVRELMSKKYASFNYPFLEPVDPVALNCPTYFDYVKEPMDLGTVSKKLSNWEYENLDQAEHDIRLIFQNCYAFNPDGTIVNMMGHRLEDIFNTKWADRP

Compound: OC(Cn1cncn1)(Cn1cncn1)c1ccc(F)cc1F [fluconazole]
- growth (Figure S10A) ([1]; Cg101 pdr1Δ mut, Fluconazole 0.5 µg/mL): 21% and 19% and 15%
- growth (Figure S10A) ([1]; Cg101 pdr1Δ mut, Fluconazole 1 µg/mL): 12% and 11% and 6%
- growth (Figure S10A) ([1]; Cg101 pdr1Δ mut, Fluconazole 2 µg/mL): 6% (2×) and 2%
- growth (Figure S10A) ([1]; Cg101 pdr1Δ mut, Fluconazole 4 µg/mL): 6% and 3% and 2%
- growth (Figure S10A) ([1]; Cg102 pdr1 rescue, Fluconazole 0.5 µg/mL): 55% and 61% and 53%
- growth (Figure S10A) ([1]; Cg102 pdr1 rescue, Fluconazole 1 µg/mL): 36% and 35% and 25%
- growth (Figure S10A) ([1]; Cg102 pdr1 rescue, Fluconazole 2 µg/mL): 14% and 19% and 18%
- growth (Figure S10A) ([1]; Cg102 pdr1 rescue, Fluconazole 4 µg/mL): 5% and 9% and 6%
- growth (Figure S10A) ([1]; Cg103 PDR1 WT, Fluconazole 0.5 µg/mL): 57% and 60% and 48%
- growth (Figure S10A) ([1]; Cg103 PDR1 WT, Fluconazole 1 µg/mL): 24% (2×) and 33%
- growth (Figure S10A) ([1]; Cg103 PDR1 WT, Fluconazole 2 µg/mL): 13% and 12% and 14%
- growth (Figure S10A) ([1]; Cg103 PDR1 WT, Fluconazole 4 µg/mL): 6% and 5% (2×)
- sensitivity upon deletion of PDR1 ([1]; titration, pdr1Δ versus WT and rescue strains): enhanced

Compound: COc1ccc(CNc2nc(-c3ccccc3)nnc2C)cc1 [Compound 10]
- IC50 (CgBdf1 BD1 [2]; Fig 2C original data, analogs of 24, single experiments Exp1-3, read-out: pIC50 CgBD1 (converted)): 2.28 µM and 2.58 µM and 1.86 µM
- IC50 (CgBdf1 BD1 [2]; Table S3, estimate, preliminary single-replicate HTRF assay, read-out: IC50 CgBdf1 BD1): 5 µM
- IC50 (CgBdf1 BD2 [3]; Fig 2C original data, analogs of 24, single experiments Exp1-3, read-out: pIC50 CgBD2 (converted)): > 100 µM
- IC50 (CgBdf1 BD2 [3]; Table S3, estimate, preliminary single-replicate HTRF assay, read-out: IC50 CgBdf1 BD2): > 20 µM
- IC50 (human Brd4 BD1): > 20 µM
- IC50 (human Brd4 BD2): > 20 µM
- Normalized (0 to 100%), WT, Average (CgBdf1 BD1 [4]; CgBdf1 BD1 WT, normalized peptide array signal): 2.21%
- Raw data, WT, Left (CgBdf1 BD1 [4]; CgBdf1 BD1 WT, peptide array signal, left replicate): 0.006616
- Raw data, WT, Rigt (CgBdf1 BD1 [4]; CgBdf1 BD1 WT, peptide array signal, right replicate): 0.03749
- Normalized (0 to 100%), YF mutant, Average (CgBdf1 BD1 [4]; CgBdf1 BD1 YF mutant, normalized peptide array signal): 0.293%
- Raw data, YF mutant, Left (CgBdf1 BD1 [4]; CgBdf1 BD1 YF mutant, peptide array signal, left replicate): 0.003085
- Raw data, YF mutant, Right (CgBdf1 BD1 [4]; CgBdf1 BD1 YF mutant, peptide array signal, right replicate): 0.002776
- Normalized (0 to 100%), WT, Average (CgBdf1 BD2 [5]; CgBdf1 BD2 WT, normalized peptide array signal): 0.608%
- Raw data, WT, Left (CgBdf1 BD2 [5]; CgBdf1 BD2 WT, peptide array signal, left replicate): 0.004055
- Raw data, WT, Rigt (CgBdf1 BD2 [5]; CgBdf1 BD2 WT, peptide array signal, right replicate): 0.00811
- Normalized (0 to 100%), YF mutant, Average (CgBdf1 BD2 [5]; CgBdf1 BD2 YF mutant, normalized peptide array signal): 0.859%
- Raw data, YF mutant, Left (CgBdf1 BD2 [5]; CgBdf1 BD2 YF mutant, peptide array signal, left replicate): 0.01319
- Raw data, YF mutant, Right (CgBdf1 BD2 [5]; CgBdf1 BD2 YF mutant, peptide array signal, right replicate): 0.003988
- EC50 ([6]; read-out: pEC50 (WT BDF1), Fig 2D (converted), WT C. glabrata): 180 µM
- EC50 ([6]; read-out: pEC50 growth inhibition, Fig 2C (converted), strain BD1 Y-F): 149 µM
